From ChEMBL document CHEMBL1201862, “PubChem BioAssay data set” (2004)
Structures can show the parent of a compound that is named as a salt. Calls of active or inactive are those of the source.

Experiments:
[1] = target: T1, Eukaryotic translation initiation factor 4H (Homo sapiens, UniProt Q15056); test: human eIF4H binding inhibitors, primary screen, translation initiation inhibitor project, biochemical, uHTS, fluorescence polarization (AID 2012)
[2] = target: T2, Polyadenylate-binding protein 1 (Homo sapiens, UniProt P11940); test: PABP poly(A) RNA binding inhibitors, primary screen, biochemical, fluorescence polarization, uHTS (AID 2014)
T2 sequence (P11940 whole entry): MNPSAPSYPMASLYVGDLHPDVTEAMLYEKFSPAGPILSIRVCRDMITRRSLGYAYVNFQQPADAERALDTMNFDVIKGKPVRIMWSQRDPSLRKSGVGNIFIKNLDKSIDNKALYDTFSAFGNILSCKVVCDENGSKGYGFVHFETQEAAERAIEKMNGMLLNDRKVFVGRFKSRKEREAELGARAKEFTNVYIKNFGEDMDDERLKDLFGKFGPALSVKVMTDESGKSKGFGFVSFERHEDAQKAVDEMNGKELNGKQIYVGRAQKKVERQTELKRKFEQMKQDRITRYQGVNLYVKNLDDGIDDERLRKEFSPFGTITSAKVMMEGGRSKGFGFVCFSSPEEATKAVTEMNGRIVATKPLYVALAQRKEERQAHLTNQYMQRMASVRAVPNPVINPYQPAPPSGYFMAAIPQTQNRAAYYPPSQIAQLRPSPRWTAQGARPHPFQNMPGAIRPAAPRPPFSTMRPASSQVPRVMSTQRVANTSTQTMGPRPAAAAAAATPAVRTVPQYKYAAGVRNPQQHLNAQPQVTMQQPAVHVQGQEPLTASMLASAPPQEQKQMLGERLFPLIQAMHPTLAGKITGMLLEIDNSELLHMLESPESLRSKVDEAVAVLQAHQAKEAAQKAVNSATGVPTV

[3] = target: DNA dC->dU-editing enzyme APOBEC-3A (Homo sapiens, UniProt P31941); test: Dose Response confirmation of small molecule APOBEC3A DNA Deaminase Inhibitors via a fluorescence-based single-stranded DNA deaminase assay. [Related pubchem assays (depositor defined):AID493011, AID493024]; assay type: functional
DNA dC->dU-editing enzyme APOBEC-3A, sequence (P31941 whole entry): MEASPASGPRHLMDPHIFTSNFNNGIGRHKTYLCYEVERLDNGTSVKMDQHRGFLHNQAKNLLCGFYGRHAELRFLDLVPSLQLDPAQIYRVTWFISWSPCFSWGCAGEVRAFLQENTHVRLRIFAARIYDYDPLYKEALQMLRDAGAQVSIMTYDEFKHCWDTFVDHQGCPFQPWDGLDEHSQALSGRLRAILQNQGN

[4] = target: T3, DNA dC->dU-editing enzyme APOBEC-3G (Homo sapiens, UniProt Q9HC16); assay type: functional
T3 sequence (Q9HC16 whole entry): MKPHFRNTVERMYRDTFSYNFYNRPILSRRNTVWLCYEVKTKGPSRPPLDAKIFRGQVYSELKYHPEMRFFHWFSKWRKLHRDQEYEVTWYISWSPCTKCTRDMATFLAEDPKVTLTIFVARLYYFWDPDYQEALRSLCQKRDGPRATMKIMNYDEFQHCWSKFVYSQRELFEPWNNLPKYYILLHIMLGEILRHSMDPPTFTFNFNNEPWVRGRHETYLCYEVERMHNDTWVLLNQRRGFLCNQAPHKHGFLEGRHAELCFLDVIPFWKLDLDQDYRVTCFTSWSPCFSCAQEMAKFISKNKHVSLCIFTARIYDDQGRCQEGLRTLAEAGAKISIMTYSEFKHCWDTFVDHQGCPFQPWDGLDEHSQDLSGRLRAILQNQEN

[5] = A Cell Based Secondary Assay To Explore Cytotoxicity of Compounds that Sensitize Mycobacterium Tuberculosis to Beta-Lactam Antibiotics.; assay type: functional
[6] = target: T1, Eukaryotic translation initiation factor 4H; test: eIF4H inhibition in translation initiation, SAR follow-up (AID 435011); assay type: functional
[7] = target: T2, Polyadenylate-binding protein 1; test: PABP inhibition in translation initiation, SAR follow-up (AID 435018); assay type: functional
[8] = target: T4, Voltage-gated N-type calcium channel alpha-1B subunit/Amyloid beta A4 precursor protein-binding family A member 1 (Homo sapiens, UniProt Q00975+Q02410); assay type: protein assay
T4 sequence (Q00975 whole entry): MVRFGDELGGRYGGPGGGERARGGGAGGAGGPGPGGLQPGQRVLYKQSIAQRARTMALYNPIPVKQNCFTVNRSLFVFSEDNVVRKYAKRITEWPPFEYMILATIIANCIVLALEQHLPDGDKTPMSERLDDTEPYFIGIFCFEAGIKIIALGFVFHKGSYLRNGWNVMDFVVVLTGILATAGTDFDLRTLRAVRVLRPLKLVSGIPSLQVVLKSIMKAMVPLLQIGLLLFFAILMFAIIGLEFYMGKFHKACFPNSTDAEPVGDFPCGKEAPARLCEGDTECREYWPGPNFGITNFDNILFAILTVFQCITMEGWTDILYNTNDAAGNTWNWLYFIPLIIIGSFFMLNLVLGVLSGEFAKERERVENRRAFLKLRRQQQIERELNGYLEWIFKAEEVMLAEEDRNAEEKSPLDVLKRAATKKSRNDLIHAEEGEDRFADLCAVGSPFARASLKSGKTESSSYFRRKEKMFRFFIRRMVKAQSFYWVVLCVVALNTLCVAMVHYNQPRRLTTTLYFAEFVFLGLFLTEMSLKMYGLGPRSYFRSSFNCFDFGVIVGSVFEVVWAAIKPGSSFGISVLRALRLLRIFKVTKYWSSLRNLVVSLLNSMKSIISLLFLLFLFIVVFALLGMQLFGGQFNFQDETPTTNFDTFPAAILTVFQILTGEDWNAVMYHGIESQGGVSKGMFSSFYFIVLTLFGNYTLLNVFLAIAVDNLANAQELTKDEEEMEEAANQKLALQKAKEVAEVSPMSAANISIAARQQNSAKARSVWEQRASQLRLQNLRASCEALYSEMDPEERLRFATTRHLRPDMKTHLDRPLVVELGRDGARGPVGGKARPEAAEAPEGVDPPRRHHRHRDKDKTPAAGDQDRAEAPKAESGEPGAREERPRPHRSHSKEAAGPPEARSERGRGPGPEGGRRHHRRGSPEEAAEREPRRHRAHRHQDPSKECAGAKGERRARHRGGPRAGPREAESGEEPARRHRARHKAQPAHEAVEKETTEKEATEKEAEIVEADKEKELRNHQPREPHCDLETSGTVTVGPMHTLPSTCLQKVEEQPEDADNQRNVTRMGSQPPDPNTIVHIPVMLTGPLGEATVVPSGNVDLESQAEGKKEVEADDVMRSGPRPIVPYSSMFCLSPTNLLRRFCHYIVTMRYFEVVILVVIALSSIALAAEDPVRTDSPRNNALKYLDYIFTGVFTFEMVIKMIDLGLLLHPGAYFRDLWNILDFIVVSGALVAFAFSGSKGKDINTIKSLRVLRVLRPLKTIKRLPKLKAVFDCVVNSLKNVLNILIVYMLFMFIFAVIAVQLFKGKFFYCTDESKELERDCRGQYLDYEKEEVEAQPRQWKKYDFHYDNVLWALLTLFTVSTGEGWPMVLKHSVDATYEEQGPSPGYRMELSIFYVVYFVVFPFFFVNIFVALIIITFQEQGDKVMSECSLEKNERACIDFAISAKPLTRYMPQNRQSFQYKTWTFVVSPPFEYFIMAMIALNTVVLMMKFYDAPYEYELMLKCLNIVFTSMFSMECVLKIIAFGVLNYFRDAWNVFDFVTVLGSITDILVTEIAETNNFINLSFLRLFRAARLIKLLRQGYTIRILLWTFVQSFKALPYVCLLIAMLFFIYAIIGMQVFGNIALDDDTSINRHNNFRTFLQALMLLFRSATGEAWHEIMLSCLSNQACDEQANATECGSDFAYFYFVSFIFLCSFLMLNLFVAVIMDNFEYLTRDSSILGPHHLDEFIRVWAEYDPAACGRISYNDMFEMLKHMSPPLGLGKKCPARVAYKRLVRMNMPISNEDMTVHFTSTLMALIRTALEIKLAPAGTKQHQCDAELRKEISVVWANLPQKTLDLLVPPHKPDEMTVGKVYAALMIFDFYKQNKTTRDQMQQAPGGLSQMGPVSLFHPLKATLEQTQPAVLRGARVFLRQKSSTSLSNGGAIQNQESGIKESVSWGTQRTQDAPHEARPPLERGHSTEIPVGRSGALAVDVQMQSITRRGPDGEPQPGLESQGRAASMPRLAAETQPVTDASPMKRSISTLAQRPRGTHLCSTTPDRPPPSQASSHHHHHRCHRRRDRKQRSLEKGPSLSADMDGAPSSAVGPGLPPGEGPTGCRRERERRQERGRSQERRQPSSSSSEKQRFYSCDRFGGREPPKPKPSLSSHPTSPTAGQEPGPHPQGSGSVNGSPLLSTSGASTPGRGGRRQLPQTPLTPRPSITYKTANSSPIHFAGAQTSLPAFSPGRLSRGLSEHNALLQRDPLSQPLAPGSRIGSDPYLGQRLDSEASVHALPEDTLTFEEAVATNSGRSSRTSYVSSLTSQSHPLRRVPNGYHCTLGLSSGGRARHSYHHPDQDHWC
T4 sequence (Q02410 whole entry): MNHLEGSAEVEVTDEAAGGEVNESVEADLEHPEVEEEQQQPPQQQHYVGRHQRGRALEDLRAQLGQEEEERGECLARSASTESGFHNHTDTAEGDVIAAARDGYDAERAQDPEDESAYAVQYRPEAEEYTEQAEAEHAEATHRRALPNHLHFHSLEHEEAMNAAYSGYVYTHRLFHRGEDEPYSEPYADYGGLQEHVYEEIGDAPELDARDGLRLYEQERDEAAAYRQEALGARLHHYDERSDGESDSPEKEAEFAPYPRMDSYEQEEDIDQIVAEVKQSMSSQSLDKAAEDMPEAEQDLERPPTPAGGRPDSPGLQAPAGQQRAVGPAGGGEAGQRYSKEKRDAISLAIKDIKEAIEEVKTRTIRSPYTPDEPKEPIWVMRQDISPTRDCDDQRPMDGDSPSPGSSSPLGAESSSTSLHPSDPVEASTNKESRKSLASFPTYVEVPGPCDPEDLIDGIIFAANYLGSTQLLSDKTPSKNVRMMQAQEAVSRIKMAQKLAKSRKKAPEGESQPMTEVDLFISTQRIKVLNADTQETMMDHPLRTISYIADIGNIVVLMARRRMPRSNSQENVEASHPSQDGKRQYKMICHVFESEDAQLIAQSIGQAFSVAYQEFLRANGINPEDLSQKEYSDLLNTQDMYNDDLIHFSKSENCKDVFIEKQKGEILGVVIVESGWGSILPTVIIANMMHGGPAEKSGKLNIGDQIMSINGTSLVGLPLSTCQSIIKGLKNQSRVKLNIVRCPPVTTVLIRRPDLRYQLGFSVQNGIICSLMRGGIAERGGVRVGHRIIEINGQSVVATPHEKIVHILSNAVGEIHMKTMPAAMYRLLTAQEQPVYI

[9] = target: T4, Voltage-gated N-type calcium channel alpha-1B subunit/Amyloid beta A4 precursor protein-binding family A member 1; assay type: protein assay; remark: listed apart in the source
[10] = target: Induced myeloid leukemia cell differentiation protein Mcl-1 (Homo sapiens, UniProt Q07820); assay type: functional
[11] = target: T3, DNA dC->dU-editing enzyme APOBEC-3G; test: Dose Response confirmation of small molecule APOBEC3G DNA Deaminase Inhibitors via a fluorescence-based single-stranded DNA deaminase assay. [Related pubchem assays (depositor defined):AID493012, AID493028]; assay type: functional
[12] = target: DNA (cytosine-5)-methyltransferase 1 (Homo sapiens, UniProt P26358); test: DNMT1 methyltransferase inhibitors, confirmation, biochemical, fluorescent molecular beacon (AID 602386); assay type: functional
[13] = target: Aspartyl aminopeptidase (Plasmodium falciparum 3D7, UniProt Q8I2J3)
[14] = target: Procathepsin L (Homo sapiens, UniProt P07711)
Procathepsin L, sequence (P07711 whole entry): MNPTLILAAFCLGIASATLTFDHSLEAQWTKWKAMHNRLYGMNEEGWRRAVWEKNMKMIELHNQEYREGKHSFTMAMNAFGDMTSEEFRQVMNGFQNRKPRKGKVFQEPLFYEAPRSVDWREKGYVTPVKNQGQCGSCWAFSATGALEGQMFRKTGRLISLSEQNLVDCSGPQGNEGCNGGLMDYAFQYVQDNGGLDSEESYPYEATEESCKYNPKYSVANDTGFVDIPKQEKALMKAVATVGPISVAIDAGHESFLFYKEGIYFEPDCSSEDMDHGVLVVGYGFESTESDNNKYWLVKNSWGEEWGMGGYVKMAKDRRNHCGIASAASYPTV

[15] = system: HeLa; test: HeLa cell cytotoxicity, dose response, cytotoxicity control, 24 h, cherry-picked samples (AID 504726); assay type: functional, cell-based; settings: Homo sapiens;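 note: potency for cytotoxicity as loss of luminescence signal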
[16] = inhibitors of firefly luciferase expression or activity, dose response, H4 neuroglioma cells, luminescence (AID 1990); assay type: functional, cell-based
[17] = luciferase reporter signal reduction – luminescence, H4-C neuroglioblastoma cells, dose response (AID 2458); assay type: functional, cell-based;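 note: H4 neuroglioblastoma cells stably carrying a luciferase reporter gene fusion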
[18] = cells; assay type: functional, cell-based
[19] = Luminescence Cell-Based Dose Response HTS to Identify Inhibitors of 5'UTR Stem-Loop Driven Prion Protein mRNA Translation in H4 Neuroglioblastoma Cells. [Related pubchem assays: 1827 (Project Summary), 1813 (Primary HTS)]; assay type: functional
[20] = inhibitors of SNCA 5'UTR-driven reporter translation, confirmation, H4 neuroglioma cells, luminescence (AID 1988); assay type: functional, cell-based
[21] = inhibitors of SNCA 5'UTR-driven translation, confirmation, luminescence, H4 neuroglioblastoma cells, dose confirmation (AID 2454); assay type: functional, cell-based;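 note: H4 neuroglioblastoma cells carrying an alpha-synuclein 5'UTR luciferase reporter; potency for inhibition of the luciferase signal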
[22] = cytotoxicity in HEK-293T cells, dose response, cytotoxicity control for TCR NF-kB inhibitor project, luminescence, T-cell screen hits (AID 489026); assay type: functional, cell-based;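 note: cells exposed to compound about 14 hours before the viability readout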
[23] = cells; assay type: functional, cell-based; remark: listed apart in the source
[24] = target: T5, Nuclear receptor subfamily 0 group B member 1 (Homo sapiens, UniProt P51843); assay type: functional, cell-based;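 note: HEK293T cells transfected with SF-1 and DAX-1 plus StAR promoter luciferase reporter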
T5 sequence (P51843 whole entry): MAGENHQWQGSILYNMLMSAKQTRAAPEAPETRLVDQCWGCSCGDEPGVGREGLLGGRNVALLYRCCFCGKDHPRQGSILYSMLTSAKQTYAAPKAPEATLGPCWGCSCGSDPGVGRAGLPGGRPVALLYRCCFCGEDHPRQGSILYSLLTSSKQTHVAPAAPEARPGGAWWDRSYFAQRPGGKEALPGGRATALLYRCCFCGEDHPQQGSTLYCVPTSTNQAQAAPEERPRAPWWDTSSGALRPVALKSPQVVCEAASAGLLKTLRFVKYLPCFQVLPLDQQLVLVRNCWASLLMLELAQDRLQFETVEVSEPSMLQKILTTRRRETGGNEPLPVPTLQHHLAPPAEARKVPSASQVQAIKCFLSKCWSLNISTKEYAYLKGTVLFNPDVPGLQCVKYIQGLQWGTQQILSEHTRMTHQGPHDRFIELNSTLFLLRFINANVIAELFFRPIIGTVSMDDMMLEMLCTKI

In the case of `Cc1cccc(C(=O)Nc2ccc(S(=O)(=O)N3CCOCC3)cc2C)c1`, the IC50 [1] is reported as > 100 µM (inactive), the IC50 [2] is reported as 11.2 µM (active) and the IC50 [3] is reported as 4.44 µM (active). The IC50 [4] was 9.37 µM (active).
In the case of `CCC(C)Nc1c2c(nc3c(-c4ccccc4)c(C)nn13)CCC2` (stereo not given), the CC50 [5] is reported as > 40 µM (active).
For `Cc1ccc(NC(=O)C2CCCN2C(=O)Oc2ccccc2)cc1` (stereo not given), the IC50 [6] was > 100 µM (inactive) and the IC50 [7] was > 100 µM (inactive).
With `Oc1cccc2cc3cccc(O)c3c(O)c12` the IC50 [8] was 19.9 µM (active), the IC50 [9] was 38.3 µM (active) and the IC50 [10] was 2.39 µM (active). The IC50 [11] was 16.9 µM (active) and the IC50 [12] was 1.9 µM (active).
In the case of `Cc1ccc(Cl)cc1NC(=S)Nn1cnnc1`, the IC50 [13] is reported as 2.06 µM (active) and the IC50 [14] is reported as > 59.6 µM (not active).
With `Cc1cc(C)n2nc(C(=O)OC(C)C(=O)c3cc(C)c(C)cc3C)nc2n1` (stereo not given) the AC50 [15] was > 350 µM (inactive).
In the case of `Oc1ccccc1/C=N/c1ccccc1-c1nc2ccccc2[nH]1`, the AC50 [15] is reported as 241 µM (active).
With `CC[C@]1(O)CC2CN(CCc3c([nH]c4ccccc34)[C@@](C(=O)OC)(c3cc4c(cc3OC)N(C=O)[C@H]3[C@@](O)(C(=O)OC)[C@H](OC(C)=O)[C@]5(CC)C=CCN6CC[C@]43[C@@H]65)C2)C1` (stereo not given in full) [VINCRISTINE SULFATE] the EC50 [16] was < 100 nM (active), the EC50 [17] was 47 nM (active) and the EC50 [18] was 63 nM (active). For the same molecule, the EC50 [19] was < 100 nM (active), the EC50 [20] was < 100 nM (active) and the EC50 [21] was 55 nM (active). For the same molecule, the IC50 [22] was > 80 µM (inactive), the IC50 [23] was > 67.5 µM (inactive) and the IC50 [24] was > 278 nM (active).
